Assay results published in patent US20240325353A1, “COMPOUND FOR TREATMENT OF COGNITIVE DISORDERS” (Syndesi Therapeutics SA, priority 2021, published 2024).

System: brain activity (BOLD signal)
Test: pharmaco-MRI (BOLD) neuroimaging study in conscious rats
Assay type: in vivo, rat
Conditions: for median number of positive voxels (positive BOLD volume of activation): 20-30 min post injection
Description: Test Substance, Reference Substance(s), and Vehicle: the compound of example 1 test substance for dose-dependent change in BOLD signal was provided by Syndesi along with the formula for the vehicle.
Subjects: Forty-eight male Sprague Dawley rats weighing ca 275-300 g were obtained from Charles River Laboratories (Wilmington, MA, USA). Rat were maintained on a 12:12 hour light:dark cycle with a lights on at 0700 hours and allowed access to food and water ad libitum. All rats were acquired and cared for in accordance with the guidelines published in the Guide for the Care and Use of Laboratory Animals (National Institutes of Health Publications No. 85-23, Revised 1985) and adhered to the National Institutes of Health and the American Association for Laboratory Animal Science guidelines.
Acclimation: To reduce the stress associated with head restraint, rats were acclimated to the restraining system (head holder and body tube) one week prior to their actual imaging session. The design of the restraining system (Animal Imaging Research, Holden MA, USA) included a padded head support obviating the need for ear bars helping to reduce animal discomfort while minimizing motion artifact. These acclimation sessions were run each day for 4-5 consecutive days. Rats were briefly anesthetized with 2-3% isoflurane while being secured into the head holder. The forepaws were secured with tape. When fully conscious, the imaging system is placed into a black opaque box “mock scanner” for 30 min with a tape-recording of the MRI pulse sequence to simulate the bore of the magnet and the imaging protocol. A significant decline in respiration, heart rate, motor movements, and plasma corticosterone has been measured when the first and last acclimation periods are compared (King et al., 2005). The reduction in autonomic and somatic measures of arousal and stress improve the signal resolution and quality of the images.
Image Acquisition: Animals were scanned at 300 MHz using a quadrature transmit/receive volume coil built into the rat head holder and restraining system for awake animal imaging (Animal Imaging Research, Holden, MA, USA). The design of the coil provided complete coverage of the brain from olfactory bulbs to brain stem with excellent B1 field homogeneity. Experiments were conducted using a Bruker Biospec 7.0 T/20-cm USR horizontal magnet (Bruker, Billerica, MA, USA) and a 20-G/cm magnetic field gradient insert (ID=12 cm) capable of a 120-μs rise time. At the beginning of each imaging session, a high-resolution anatomical data set was collected using the RARE pulse sequence [22 slice; 1.0 mm; field of view (FOV) 3.0 cm; matrix size 256×256; repetition time (TR) 2.5 s; echo time (TE) 12 ms; NEX 2; 3 min acquisition time]. Functional images were acquired using a multi-slice half-Fourier acquisition single-shot turbo spin echo (HASTE) pulse sequence. Bruker Paravision automatically finds the basic frequency, shims, power requirements for 90° and 180° pulses and sets the receiver gain. A single scanning session acquired 22 slices, 1.0 mm thick, every 6.0 s (TR), using an effective TE of 48 ms, FOV 3.0 cm, matrix size 96×96, NEX 1, and repeated 450 times for a total scanning time of 45 min. The in-plane pixel resolution was 312 μm2.
Data Processing: Data are coregistered to a mean functional image using SPM8's coregistrational code with the following parameters: Quality: 0.97, Smoothing: 0.35 mm, Separation: 0.5 mm. Gaussian smoothing was performed with a FWHM of 0.8 mm. Images were aligned and registered to the 3D rat brain atlas, segmented and labeled with 171 discrete anatomical regions. The alignment process was facilitated by an interactive graphic user interface. The registration process involved translation, rotation and scaling independently and in all three dimensions. Matrices that transformed each subject's anatomy were used to embed each slice within the atlas. […]

With O=C1C[C@H](c2cc(F)c(F)c(F)c2)CN1Cn1ncnc1Cl [compound of example 1, (4R)-1-[(5-chloro-1H-1,2,4-triazol-1-yl)methyl]-4-(3,4,5-trifluorophenyl)pyrrolidin-2-one] the “effect on the volume of activation (dose response, inverted U)” value (0.1 mg/kg i.p.) was “greatest effect”, the “brain areas significantly activated, low dose versus vehicle” value (0.1 mg/kg versus vehicle, of 171 brain regions) was 30/171 and the “effect on the volume of activation (dose response, inverted U)” value (1.0 mg/kg i.p.) was “little or no activation”. For the same molecule, the “median number of positive voxels (positive BOLD volume of activation)” value (from here on “median number of positive voxels”) (CA1 dorsal, 0.1 mg/kg i.p.) was 23, the “median number of positive voxels” value (CA1 dorsal, 0.3 mg/kg i.p.) was 15 and the “median number of positive voxels” value (CA1 dorsal, 1.0 mg/kg i.p.) was 0. For the same molecule, the “median number of positive voxels” value (accumbens core, 0.1 mg/kg i.p.) was 13, the “median number of positive voxels” value (accumbens core, 0.3 mg/kg i.p.) was 3 and the “median number of positive voxels” value (accumbens core, 1.0 mg/kg i.p.) was 0. For the same molecule, the “median number of positive voxels” value (accumbens shell, 0.1 mg/kg i.p.) was 8, the “median number of positive voxels” value (accumbens shell, 0.3 mg/kg i.p.) was 10 and the “median number of positive voxels” value (accumbens shell, 1.0 mg/kg i.p.) was 2. For the same molecule, the “median number of positive voxels” value (anterior cingulate area, 0.1 mg/kg i.p.) was 67, the “median number of positive voxels” value (anterior cingulate area, 0.3 mg/kg i.p.) was 37 and the “median number of positive voxels” value (anterior cingulate area, 1.0 mg/kg i.p.) was 2. For the same molecule, the “median number of positive voxels” value (anterior pretectal nucleus, 0.1 mg/kg i.p.) was 7, the “median number of positive voxels” value (anterior pretectal nucleus, 0.3 mg/kg i.p.) was 5 and the “median number of positive voxels” value (anterior pretectal nucleus, 1.0 mg/kg i.p.) was 0. The “median number of positive voxels” value (central amygdaloid nucleus, 0.1 mg/kg i.p.) was 8, the “median number of positive voxels” value (central amygdaloid nucleus, 0.3 mg/kg i.p.) was 4 and the “median number of positive voxels” value (central amygdaloid nucleus, 1.0 mg/kg i.p.) was 0. The “median number of positive voxels” value (dentate gyrus dorsal, 0.1 mg/kg i.p.) was 17, the “median number of positive voxels” value (dentate gyrus dorsal, 0.3 mg/kg i.p.) was 9 and the “median number of positive voxels” value (dentate gyrus dorsal, 1.0 mg/kg i.p.) was 0. The “median number of positive voxels” value (dentate gyrus ventral, 0.1 mg/kg i.p.) was 14, the “median number of positive voxels” value (dentate gyrus ventral, 0.3 mg/kg i.p.) was 14 and the “median number of positive voxels” value (dentate gyrus ventral, 1.0 mg/kg i.p.) was 0. For the same molecule, the “median number of positive voxels” value (dorsal medial striatum, 0.1 mg/kg i.p.) was 39, the “median number of positive voxels” value (dorsal medial striatum, 0.3 mg/kg i.p.) was 30 and the “median number of positive voxels” value (dorsal medial striatum, 1.0 mg/kg i.p.) was 0. For the same molecule, the “median number of positive voxels” value (dorsal raphe, 0.1 mg/kg i.p.) was 1, the “median number of positive voxels” value (dorsal raphe, 0.3 mg/kg i.p.) was 0 and the “median number of positive voxels” value (dorsal raphe, 1.0 mg/kg i.p.) was 0. The “median number of positive voxels” value (endopiriform nucleus, 0.1 mg/kg i.p.) was 2, the “median number of positive voxels” value (endopiriform nucleus, 0.3 mg/kg i.p.) was 0 and the “median number of positive voxels” value (endopiriform nucleus, 1.0 mg/kg i.p.) was 0. For the same molecule, the “median number of positive voxels” value (granular cell layer, 0.1 mg/kg i.p.) was 70, the “median number of positive voxels” value (granular cell layer, 0.3 mg/kg i.p.) was 52 and the “median number of positive voxels” value (granular cell layer, 1.0 mg/kg i.p.) was 9. The “median number of positive voxels” value (habenula nucleus, 0.1 mg/kg i.p.) was 11, the “median number of positive voxels” value (habenula nucleus, 0.3 mg/kg i.p.) was 10 and the “median number of positive voxels” value (habenula nucleus, 1.0 mg/kg i.p.) was 0. For the same molecule, the “median number of positive voxels” value (infralimbic ctx, 0.1 mg/kg i.p.) was 19, the “median number of positive voxels” value (infralimbic ctx, 0.3 mg/kg i.p.) was 21 and the “median number of positive voxels” value (infralimbic ctx, 1.0 mg/kg i.p.) was 4. For the same molecule, the “median number of positive voxels” value (lateral amygdaloid nucleus, 0.1 mg/kg i.p.) was 5, the “median number of positive voxels” value (lateral hypothalamus, 0.1 mg/kg i.p.) was 56 and the “median number of positive voxels” value (lateral hypothalamus, 0.3 mg/kg i.p.) was 59. For the same molecule, the “median number of positive voxels” value (lateral hypothalamus, 1.0 mg/kg i.p.) was 2, the “median number of positive voxels” value (lateral orbital ctx, 0.1 mg/kg i.p.) was 29 and the “median number of positive voxels” value (lateral orbital ctx, 0.3 mg/kg i.p.) was 14. The “median number of positive voxels” value (lateral orbital ctx, 1.0 mg/kg i.p.) was 1, the “median number of positive voxels” value (lateral posterior thalamic nucleus, 0.1 mg/kg i.p.) was 11 and the “median number of positive voxels” value (lateral posterior thalamic nucleus, 0.3 mg/kg i.p.) was 3. The “median number of positive voxels” value (lateral posterior thalamic nucleus, 1.0 mg/kg i.p.) was 0, the “median number of positive voxels” value (lateral preoptic area, 0.1 mg/kg i.p.) was 12 and the “median number of positive voxels” value (lateral preoptic area, 0.3 mg/kg i.p.) was 3. The “median number of positive voxels” value (lateral preoptic area, 1.0 mg/kg i.p.) was 0, the “median number of positive voxels” value (lateral septal nucleus, 0.1 mg/kg i.p.) was 34 and the “median number of positive voxels” value (lateral septal nucleus, 0.3 mg/kg i.p.) was 35. The “median number of positive voxels” value (lateral septal nucleus, 1.0 mg/kg i.p.) was 4, the “median number of positive voxels” value (paraventricular nucleus (first entry, P 0.003), 0.1 mg/kg i.p.) was 4 and the “median number of positive voxels” value (paraventricular nucleus (first entry, P 0.003), 0.3 mg/kg i.p.) was 5. For the same molecule, the “median number of positive voxels” value (paraventricular nucleus (first entry, P 0.003), 1.0 mg/kg i.p.) was 0, the “median number of positive voxels” value (prelimbic ctx, 0.1 mg/kg i.p.) was 50 and the “median number of positive voxels” value (prelimbic ctx, 0.3 mg/kg i.p.) was 32. For the same molecule, the “median number of positive voxels” value (prelimbic ctx, 1.0 mg/kg i.p.) was 4, the “median number of positive voxels” value (reticular nucleus midbrain, 0.1 mg/kg i.p.) was 19 and the “median number of positive voxels” value (reticular nucleus midbrain, 0.3 mg/kg i.p.) was 18. For the same molecule, the “median number of positive voxels” value (reticular nucleus midbrain, 1.0 mg/kg i.p.) was 1, the “median number of positive voxels” value (retrosplenial caudal ctx, 0.1 mg/kg i.p.) was 43 and the “median number of positive voxels” value (retrosplenial caudal ctx, 0.3 mg/kg i.p.) was 27. The “median number of positive voxels” value (retrosplenial caudal ctx, 1.0 mg/kg i.p.) was 0, the “median number of positive voxels” value (subiculum dorsal, 0.1 mg/kg i.p.) was 13 and the “median number of positive voxels” value (subiculum dorsal, 0.3 mg/kg i.p.) was 12. For the same molecule, the “median number of positive voxels” value (subiculum dorsal, 1.0 mg/kg i.p.) was 0, the “median number of positive voxels” value (substantia nigra reticularis, 0.1 mg/kg i.p.) was 19 and the “median number of positive voxels” value (substantia nigra reticularis, 0.3 mg/kg i.p.) was 22. For the same molecule, the “median number of positive voxels” value (substantia nigra reticularis, 1.0 mg/kg i.p.) was 2, the “median number of positive voxels” value (triangular septal nucleus, 0.1 mg/kg i.p.) was 4 and the “median number of positive voxels” value (triangular septal nucleus, 0.3 mg/kg i.p.) was 1. For the same molecule, the “median number of positive voxels” value (triangular septal nucleus, 1.0 mg/kg i.p.) was 0, the “brain areas significantly affected by the four treatments” value (vehicle, 0.1, 0.3, 1.0 mg/kg, of 171 brain regions) was 71/171 and the “median number of positive voxels” value (ventral lateral striatum, 0.1 mg/kg i.p.) was 82. For the same molecule, the “median number of positive voxels” value (ventral lateral striatum, 0.3 mg/kg i.p.) was 1, the “median number of positive voxels” value (ventral lateral striatum, 1.0 mg/kg i.p.) was 0 and the “median number of positive voxels” value (ventral medial striatum, 0.1 mg/kg i.p.) was 47. The “median number of positive voxels” value (ventral medial striatum, 0.3 mg/kg i.p.) was 18, the “median number of positive voxels” value (ventral medial striatum, 1.0 mg/kg i.p.) was 0 and the “median number of positive voxels” value (ventral orbital ctx, 0.1 mg/kg i.p.) was 19. The “median number of positive voxels” value (ventral orbital ctx, 0.3 mg/kg i.p.) was 4, the “median number of positive voxels” value (ventral orbital ctx, 1.0 mg/kg i.p.) was 1 and the “median number of positive voxels” value (ventral subiculum, 0.1 mg/kg i.p.) was 26. The “median number of positive voxels” value (ventral subiculum, 0.3 mg/kg i.p.) was 25, the “median number of positive voxels” value (ventral subiculum, 1.0 mg/kg i.p.) was 3 and the “median number of positive voxels” value (ventral tegmental area, 0.1 mg/kg i.p.) was 8. For the same molecule, the “median number of positive voxels” value (ventral tegmental area, 0.3 mg/kg i.p.) was 5, the “median number of positive voxels” value (ventral tegmental area, 1.0 mg/kg i.p.) was 0 and the “median number of positive voxels” value (visual 1 ctx, 0.1 mg/kg i.p.) was 27. The “median number of positive voxels” value (visual 1 ctx, 0.3 mg/kg i.p.) was 21, the “median number of positive voxels” value (visual 1 ctx, 1.0 mg/kg i.p.) was 0 and the “median number of positive voxels” value (zona incerta, 0.1 mg/kg i.p.) was 9. For the same molecule, the “median number of positive voxels” value (zona incerta, 0.3 mg/kg i.p.) was 3 and the “median number of positive voxels” value (zona incerta, 1.0 mg/kg i.p.) was 0.
